Reference: PMC6017844, “4-Thiazolidinone Derivatives as MMP Inhibitors in Tissue Damage: Synthesis, Biological Evaluation and Docking Studies” (Molecules : A Journal of Synthetic Chemistry and Natural …, 2018)
Like-named read-outs stand apart in the source and are kept apart here.

Columns and labels:
[1] = Oxygen Radical Absorbance Capacity (ORAC) assay; settings: for ORAC UNITs: fluorescein 10 nM, AAPH 100 mM, 37 °C, pH 7.0, mean ± SD (n = 3), Trolox = 1 ORAC Units
From the text: Free radicals and ROS are highly reactive molecules that are generated by normal cellular processes. They react with cellular components, damaging DNA, carbohydrates, proteins, and lipids causing cellular and tissue injury. Although organisms have developed complex antioxidant systems to protect themselves from oxidative substances, an excess of ROS production can lead to inflammation and several disease state. ORAC test measures both lipophilic and hydrophilic antioxidant capacity and determines the ability of antioxidants to protect proteins from damage caused by free radicals. ORAC assay has been widely accepted as a standard in vitro to measure the antioxidant activity of synthetic compounds, measuring their capacity to transfer hydrogen atom. The assay measures the loss of fluorescence over time due to peroxyl-radical formation by the breakdown of 2,2′-azobis-2-methyl-propanimidamide dihydrochloride (AAPH). 6-Hydroxy-2,5,7,8-tetramethylchroman-2-carboxylic acid (Trolox), a water soluble vitamin E analog, is a positive control that inhibits the fluorescein decay in a dose dependent manner. The ORAC assay is a kinetic assay measuring fluorescein decay and antioxidant protection over time.
The ORAC assay was performed as previously reported by Cao et al.. The measurements were carried out on a Wallac 1420 Victor^3 96-well plate reader (EG & Wallac, Turku, Finland) with fluorescence filter ([…]). Fluorescein (10 nM) was the fluorescence probe and target molecule for free radical attack from AAPH (100 mM) as peroxyl radical generator. The reaction was conducted at 37 °C at pH 7.0 with Trolox (12.5 μM) as control standard and phosphate buffer as blank. Compounds 13–19 and 22–23 were appropriately diluted with DMSO/buffer (1:10) prior to analysis. The fluorescein fluorescence was recorded every 2 min after addition of AAPH. All measurements were expressed relative to the initial reading. One blank, one standard, and a maximum of 10 samples were analyzed at the same time. Each measure was repeated at least three times. The ORAC value refers to the net protection area under the quenching curve of fluorescein in the presence of an antioxidant. The final results (ORAC value) were calculated and expressed using Trolox equivalents (TE) per gram of extract (TE/g):ORAC value (μM) = K(S sample − S blank)/(S Trolox − S blank)(1) where K is a sample dilution factor, S is the area under the fluorescence decay curve of the sample, Trolox or blank. This area was calculated with Origin®7 (OriginLab Corporation, Northampton, MA, USA).

human recombinant MMP-9 = molecular target: T1, human recombinant MMP-9 (Homo sapiens, UniProt P14780); assay: MMP-9 fluorimetric assay; format: biochemical
T1 construct: using 10 nM of proteolytic enzyme (catalytic domains of MMP-9 (Biomol, Inc.)); purchased Biomol, Inc
T1 sequence (P14780 107-444 limits assumed): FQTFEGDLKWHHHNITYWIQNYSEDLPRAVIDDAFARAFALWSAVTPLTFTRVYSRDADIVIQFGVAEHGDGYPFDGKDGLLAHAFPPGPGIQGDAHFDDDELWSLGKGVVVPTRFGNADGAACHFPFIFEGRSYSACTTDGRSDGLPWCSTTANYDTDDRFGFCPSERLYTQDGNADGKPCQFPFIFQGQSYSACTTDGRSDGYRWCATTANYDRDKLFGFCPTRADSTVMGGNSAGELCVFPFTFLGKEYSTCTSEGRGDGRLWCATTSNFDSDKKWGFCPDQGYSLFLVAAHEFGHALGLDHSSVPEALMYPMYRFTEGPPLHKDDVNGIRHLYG
Protocol: The synthesized compounds 13–19, 22 and 23 were tested for their in vitro ability to inhibit human recombinant MMP-9. Table 2 reports the results of this inhibition assay, expressed as IC50 (µM). […] We used as positive control a potent MMPs inhibitor, NNGH (N-isobutyl-N-(4-methoxy-phenylsulfonyl)glycylhydroxamic acid).
The compounds were evaluated for their ability to inhibit the hydrolysis of fluorescence-quenched peptide substrate Mca-Pro-Leu-Gly-Leu-Dpa-Ala-Arg-NH2 (Biomol, Inc., Enzo Life Sciences, Inc., Farmingdale, NY, USA). The MMP-9 assays were performed in 50 mM HEPES buffer containing 5 mM CaCl2, 0.1 mM ZnCl2, 0.05% Brij-35, at pH 7, using 10 nM of proteolytic enzyme (catalytic domains of MMP-9 (Biomol, Inc.) and 350 nM of peptide substrate. The enzyme was incubated at 25 °C with increasing concentration (0.0004, 0.004, 0.04, 0.4, 4, 40, 400 µM) of compounds, and the fluorescence (excitation max 328 nm; emission max 393 nm) was measured for 3 min after the addition of the substrate using a Victor Wallac 1420 Multilabel Counters fluorimeter (Perkin Elmer, Waltham, MA, USA). The fluorescence values of the samples were plotted against the time with a linear regression fit, using the Origin software, version 7 (Origin Lab Corporation, Northampton, MA, USA). The slope of the line value for each inhibitor concentrations was obtained where an increase of the slope corresponds to a decrease of inhibitory activity. Subsequently, the IC50 values were obtained from a non-linear regression procedure (log inhibitor vs. response) with a variables slope of the regression line (Y) and the molar inhibitor concentration (X), using the software Origin®7 (Origin Lab Corporation). The IC50 value was obtained from the equation Y = P1/(1 + X/P2). NNGH (N-Isobutyl-N-(4-methoxyphenylsulfonyl)glycylhydroxamic acid) a potent MMPs inhibitor was used as a positive control.

NF-κB = NF-κB levels by Western blot analysis; format: cell-based, human; settings: NCTC 2544 stimulated with IFN-γ and histamine, 10 µM, 48 h, in words
From the text: The treatment of keratinocyte cell line NCTC 2544 with 200 U/mL of IFN-γ and 10^−4 M of H increased NF-κB levels compared to untreated cells. IFN-γ is an essential cytokine in amplifying inflammatory reactions, as it stimulates the synthesis of chemokines that attract inflammatory cells and induces expression of molecules important for the retention and activation of T cells. We employed both IFN-γ and histamine because they use distinct signal transduction pathways, and this can lead to a stronger activation of inflammatory genes. […] Stimulated keratinocytes were treated with compounds 22 and 23 and the levels of NF-κB were measured after 48 h. […]
The normal human keratinocyte cell line NCTC 2544 was provided by Interlab Cell Line Collection Genoa (Genova, Italy) and cultured in Minimum Essential Medium (MEM) (Sigma-Aldrich, Milan, Italy) containing 10% fetal calf serum, 100 U/mL penicillin and 100 μg/mL streptomycin at 37 °C in a humidified, 95% air/5% CO2 atmosphere. […] A day before the experiment, cells were trypsinized, counted, and plated either in 96 wells or in 6 well plates. […]
The expression of nuclear factor kappa-light-chain-enhancer of activated B cells (NF-κB) was evaluated by Western blot analysis. […] Bands were measured densitometrically and their relative density was calculated based on the density of the […] in each sample. […]

IC50 (human recombinant MMP-9; read-out: IC50 (MMP-9)) [nM]	melting point [°C]	IC50 (human recombinant MMP-9; catalytic domain of MMP-9 10 nM, substrate 350 nM, 25 °C, pH 7, mean ± SD (n = 3), n.a. = not active, read-out: IC50 Value) [nM]	SMILES	ORAC value [1] [TE/µmol]	ORAC UNITs [1]	effect on NF-κB release (NF-κB)	antioxidant activity in words ([1]; delay of fluorescence reduction of fluorescein-AAPH solution)
40	137 to 140	–	CC(C(=O)NN1C(=O)CSC1c1ccc(C(=O)O)cc1)c1nsc2ccccc12 (stereo not shown) [Compound 23, 4-(3-{[2-(1,2-Benzothiazol-3-yl)propanoyl]amino}-4-oxo-1,3-thiazolidin-2-yl)benzoic acid]	0.53	0.53 ± 0.17 ORAC unit (μmol of Trolox equi	reduced NF-κB release	–
–	257 to 259	300 ± 50	CC(C(=O)NN1C(=O)CSC1c1ccc(O)cc1)c1nsc2ccccc12 (stereo not shown) [Compound 22, 2-(1,2-Benzothiazol-3-yl)-N-[2-(4-hydroxyphenyl)-4-oxo-1,3-thiazolidin-3-yl]propanamide]	–	1.24 ± 0.09 ORAC unit (μmol of Trolox equi	reduced NF-κB release	excellent antioxidant effectiveness
